“And” between values parts separate entries of the source, which are not always exact repeats. Equal entries are not always repeated.
System: 242566-281-R-J2-PDC complex spheroid viability
Test: Anticancer human tumor 242566-281-R-J2-PDC patient-derived pancreatic carcinoma cell line growth inhibition [RAS]
Settings: for viability, T/C: stronger effect = lower value
How it was run: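 Tumour cells grown as complex spheroids with HUVEC endothelial cells and mesenchymal stem cells, treated with RAS pathway inhibitor combinations. Each agent spans half-log steps from near clinical Cmax, or 10 microM where Cmax is unknown.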

[1] = curve of first compound, second compound 0.00316 µM
[2] = curve of first compound, second compound 0.01 µM
[3] = curve of first compound, second compound 0.0316 µM
[4] = curve of first compound, second compound 0.1 µM
[5] = curve of first compound, second compound 0.316 µM
[6] = curve of first compound, second compound 1 µM
[7] = second compound 0.00316 µM, first compound 0.0316 µM
[8] = second compound 0.00316 µM, first compound 0.1 µM
[9] = second compound 0.00316 µM, first compound 0.316 µM
[10] = second compound 0.00316 µM, first compound 1 µM
[11] = second compound 0.01 µM, first compound 0.0316 µM
[12] = second compound 0.01 µM, first compound 0.1 µM
[13] = second compound 0.01 µM, first compound 0.316 µM
[14] = second compound 0.01 µM, first compound 1 µM
[15] = second compound 0.0316 µM, first compound 0.0316 µM
[16] = second compound 0.0316 µM, first compound 0.1 µM
[17] = second compound 0.0316 µM, first compound 0.316 µM
[18] = second compound 0.0316 µM, first compound 1 µM
[19] = second compound 0.0316 µM, first compound 3.16 µM
[20] = second compound 0.0316 µM, first compound 10 µM
[21] = second compound 0.1 µM, first compound 0.0316 µM
[22] = second compound 0.1 µM, first compound 0.1 µM
[23] = second compound 0.1 µM, first compound 0.316 µM
[24] = second compound 0.1 µM, first compound 1 µM
[25] = second compound 0.1 µM, first compound 3.16 µM
[26] = second compound 0.1 µM, first compound 10 µM
[27] = second compound 0.316 µM, first compound 0.0316 µM
[28] = second compound 0.316 µM, first compound 0.1 µM
[29] = second compound 0.316 µM, first compound 0.316 µM
[30] = second compound 0.316 µM, first compound 1 µM
[31] = second compound 0.316 µM, first compound 3.16 µM
[32] = second compound 0.316 µM, first compound 10 µM
[33] = second compound 1 µM, first compound 0.0316 µM
[34] = second compound 1 µM, first compound 0.1 µM
[35] = second compound 1 µM, first compound 0.316 µM
[36] = second compound 1 µM, first compound 1 µM
[37] = second compound 1 µM, first compound 3.16 µM
[38] = second compound 1 µM, first compound 10 µM
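Note: spheroids exposed to compound for 7 days before readout.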
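Throughout, for viability, T/C: 100% = DMSO vehicle control wells.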

In the case of `CCC(CC)c1cc(NC2CCC(N)C2)n2nccc2n1` (configuration not stated) + C=CC(=O)N1CCN(c2nc(OCC3CCCN3C)nc3c(F)c(-c4nc(N)cc(C)c4C(F)(F)F)c(Cl)cc23)C(C)C1, the IC50 [1] is reported as 4.59 µM, the IC50 [2] is reported as 4.42 µM and the IC50 [3] is reported as 3.74 µM. The IC50 [4] was 4.54 µM, the IC50 [5] was 3.76 µM and the IC50 [6] was 4.55 µM. For the same compound, the viability, T/C [7] was 108%, the viability, T/C [8] was 141% and the viability, T/C [9] was 94.3%. The viability, T/C [10] was 109%, the viability, T/C (second compound 0.00316 µM, first compound 3.16 µM) was 72.6% and the viability, T/C (second compound 0.00316 µM, first compound 10 µM) was 1.71%. The viability, T/C [11] was 121%, the viability, T/C [12] was 146% and the viability, T/C [13] was 108%. For the same compound, the viability, T/C [14] was 100%, the viability, T/C (second compound 0.01 µM, first compound 3.16 µM) was 72.8% and the viability, T/C (second compound 0.01 µM, first compound 10 µM) was 1.81%. The viability, T/C [15] was 129%, the viability, T/C [16] was 123% and the viability, T/C [17] was 97.1%. It also gave a viability, T/C [18] of 98%, a viability, T/C [19] of 58.3% and a viability, T/C [20] of 1.98%. The viability, T/C [21] was 137%, the viability, T/C [22] was 129% and the viability, T/C [23] was 106%. The viability, T/C [24] was 96.5%, the viability, T/C [25] was 82.5% and the viability, T/C [26] was 1.56%. It also gave a viability, T/C [27] of 149%, a viability, T/C [28] of 124% and a viability, T/C [29] of 99.3%. The viability, T/C [30] was 102%, the viability, T/C [31] was 62.8% and the viability, T/C [32] was 1.81%. The viability, T/C [33] was 125%, the viability, T/C [34] was 156% and the viability, T/C [35] was 82.7%. It also gave a viability, T/C [36] of 115%, a viability, T/C [37] of 75% and a viability, T/C [38] of 1.22%.
For `CC(C)n1nc(-c2ccc3oc(N)nc3c2)c2c(N)ncnc21`, the viability, T/C (compound 0.000316 µM) was 104% [middle of 4 runs], the viability, T/C (compound 0.001 µM) was 102% [middle of 4 runs] and the viability, T/C (compound 0.01 µM) was 85.6% [middle of 4 runs]. The viability, T/C (compound 0.0316 µM) was 63.6% [middle of 4 runs], the viability, T/C (compound 0.1 µM) was 60.3% [middle of 4 runs] and the IC50 (curve of compound) was 0.0509 µM and > 0.1 µM and 0.0525 µM.
`CC1(O)CCCC1n1c(=O)c(C(F)F)cc2cnc(NC3CCN(S(C)(=O)=O)CC3)nc21` (configuration not stated) + C#Cc1c(F)ccc2cc(O)cc(-c3ncc4c(N5CC6CCC(C5)N6)nc(OCC56CCCN5CC(F)C6)nc4c3F)c12 was tested, and the IC50 [3] was > 10 µM, the IC50 [4] was 8.85 µM and the IC50 [5] was 6.91 µM. The IC50 [6] was 4.97 µM, the IC50 (curve of first compound, second compound 3.16 µM) was 3.87 µM and the IC50 (curve of first compound, second compound 10 µM) was 4.08 µM. The viability, T/C [15] was 90.6%, the viability, T/C [16] was 113% and the viability, T/C [17] was 94.6%. It also gave a viability, T/C [18] of 81.5%, a viability, T/C [19] of 108% and a viability, T/C [20] of 51.5%. It also gave a viability, T/C [21] of 80.4%, a viability, T/C [22] of 83.9% and a viability, T/C [23] of 78.7%. It also gave a viability, T/C [24] of 88%, a viability, T/C [25] of 97.6% and a viability, T/C [26] of 45.7%. For the same compound, the viability, T/C [27] was 69.3%, the viability, T/C [28] was 75.5% and the viability, T/C [29] was 60.7%. It also gave a viability, T/C [30] of 69.8%, a viability, T/C [31] of 94.6% and a viability, T/C [32] of 38.9%. For the same compound, the viability, T/C [33] was 66.3%, the viability, T/C [34] was 63.2% and the viability, T/C [35] was 65.4%. The viability, T/C [36] was 56.6%, the viability, T/C [37] was 70.5% and the viability, T/C [38] was 27.5%. It also gave a viability, T/C (second compound 3.16 µM, first compound 0.0316 µM) of 51%, a viability, T/C (second compound 3.16 µM, first compound 0.1 µM) of 54.6% and a viability, T/C (second compound 3.16 µM, first compound 0.316 µM) of 48%. The viability, T/C (second compound 3.16 µM, first compound 1 µM) was 49.1%, the viability, T/C (second compound 3.16 µM, first compound 3.16 µM) was 69% and the viability, T/C (second compound 3.16 µM, first compound 10 µM) was 29.7%. For the same compound, the viability, T/C (second compound 10 µM, first compound 0.0316 µM) was 52.3%, the viability, T/C (second compound 10 µM, first compound 0.1 µM) was 57.2% and the viability, T/C (second compound 10 µM, first compound 0.316 µM) was 61%. For the same compound, the viability, T/C (second compound 10 µM, first compound 1 µM) was 56%, the viability, T/C (second compound 10 µM, first compound 3.16 µM) was 66.8% and the viability, T/C (second compound 10 µM, first compound 10 µM) was 19.5%.
With `CCN1CCN(Cc2ccc(Nc3ncc(F)c(-c4cc(F)c5nc(C)n(C(C)C)c5c4)n3)nc2)CC1` + C=CC(=O)N1CCN(c2nc(OCC3CCCN3C)nc3c(F)c(-c4nc(N)cc(C)c4C(F)(F)F)c(Cl)cc23)C(C)C1 the IC50 [1] was > 1 µM, the IC50 [2] was > 1 µM and the IC50 [3] was > 1 µM. The IC50 [4] was > 1 µM, the IC50 [5] was > 1 µM and the IC50 [6] was > 1 µM. The viability, T/C (second compound 0.00316 µM, first compound 0.00316 µM) was 121%, the viability, T/C (second compound 0.00316 µM, first compound 0.01 µM) was 135% and the viability, T/C [7] was 100%. It also gave a viability, T/C [8] of 90.5%, a viability, T/C [9] of 123% and a viability, T/C [10] of 167%. It also gave a viability, T/C (second compound 0.01 µM, first compound 0.00316 µM) of 95.2%, a viability, T/C (second compound 0.01 µM, first compound 0.01 µM) of 160% and a viability, T/C [11] of 101%. The viability, T/C [12] was 88.8%, the viability, T/C [13] was 127% and the viability, T/C [14] was 154%. For the same compound, the viability, T/C (second compound 0.0316 µM, first compound 0.00316 µM) was 104%, the viability, T/C (second compound 0.0316 µM, first compound 0.01 µM) was 120% and the viability, T/C [15] was 102%. It also gave a viability, T/C [16] of 108%, a viability, T/C [17] of 131% and a viability, T/C [18] of 169%. The viability, T/C (second compound 0.1 µM, first compound 0.00316 µM) was 115%, the viability, T/C (second compound 0.1 µM, first compound 0.01 µM) was 136% and the viability, T/C [21] was 97.9%. For the same compound, the viability, T/C [22] was 89.3%, the viability, T/C [23] was 130% and the viability, T/C [24] was 167%. For the same compound, the viability, T/C (second compound 0.316 µM, first compound 0.00316 µM) was 98.1%, the viability, T/C (second compound 0.316 µM, first compound 0.01 µM) was 134% and the viability, T/C [27] was 94.5%. For the same compound, the viability, T/C [28] was 99.9%, the viability, T/C [29] was 154% and the viability, T/C [30] was 154%. For the same compound, the viability, T/C (second compound 1 µM, first compound 0.00316 µM) was 94.2%, the viability, T/C (second compound 1 µM, first compound 0.01 µM) was 136% and the viability, T/C [33] was 94.9%. For the same compound, the viability, T/C [34] was 96.8%, the viability, T/C [35] was 138% and the viability, T/C [36] was 160%.

— PubChem BioAssay AID2060910 (Molecular Pharmacology Branch, DTP, NCI, 2025)
